Where two headings read alike, the source gives them in different places.
Columns and labels:
PYL11 = biological target: T1, PYL11 (Arabidopsis thaliana, UniProt Q9FJ50); assay: receptor-mediated PP2C (HAB1) inhibition in vitro assay; type: biochemical; conditions: for remaining activity at 50 µM: 50 uM of the test compound
T1 construct: made in house; host or cells: E. coli BL21[DE3]pLysS
T1 sequence (Q9FJ50 1-161): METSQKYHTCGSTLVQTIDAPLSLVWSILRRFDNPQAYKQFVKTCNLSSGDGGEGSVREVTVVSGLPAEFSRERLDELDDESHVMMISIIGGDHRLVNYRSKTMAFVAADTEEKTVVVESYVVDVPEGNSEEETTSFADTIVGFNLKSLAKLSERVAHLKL
T1 sequence (Q9CAJ0 23-511 partner): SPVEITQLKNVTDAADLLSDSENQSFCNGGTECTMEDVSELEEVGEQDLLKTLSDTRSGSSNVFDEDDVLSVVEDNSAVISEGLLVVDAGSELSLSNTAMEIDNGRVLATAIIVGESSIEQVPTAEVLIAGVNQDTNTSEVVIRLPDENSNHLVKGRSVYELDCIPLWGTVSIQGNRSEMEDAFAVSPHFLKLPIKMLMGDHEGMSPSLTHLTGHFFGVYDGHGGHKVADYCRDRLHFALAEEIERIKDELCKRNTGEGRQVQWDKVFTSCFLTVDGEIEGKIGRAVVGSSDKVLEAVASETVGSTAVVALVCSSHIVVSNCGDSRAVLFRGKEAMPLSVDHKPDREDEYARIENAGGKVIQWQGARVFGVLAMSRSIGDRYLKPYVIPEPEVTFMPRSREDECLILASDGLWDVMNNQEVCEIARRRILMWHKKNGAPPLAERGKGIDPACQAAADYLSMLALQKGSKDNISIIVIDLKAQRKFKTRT
Summary of the method: (§1)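 Compounds, tested at 25 μM or 50 uM with ABA at 10 uM, were incubated with recombinant receptor and 50 nM GST-HAB1 (2:1 ratio) in MnCl2-containing Tris-OAc buffer, pH 7.9. Phosphatase activity was followed by 4-methylumbelliferyl-phosphate fluorescence.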

PYL10 = biological target: T2, PYL10 (Arabidopsis thaliana, UniProt Q8H1R0); assay: as above; type: biochemical; conditions: for remaining activity at 50 µM: 50 uM of the test compound
T2 construct: 6X-His; made in house; host or cells: E. coli BL21[DE3]pLysS
T2 sequence (Q8H1R0 1-183): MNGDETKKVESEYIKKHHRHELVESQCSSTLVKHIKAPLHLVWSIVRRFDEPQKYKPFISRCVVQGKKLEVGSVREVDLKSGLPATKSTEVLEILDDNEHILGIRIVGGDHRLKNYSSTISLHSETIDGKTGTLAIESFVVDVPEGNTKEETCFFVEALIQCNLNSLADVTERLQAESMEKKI
T2 sequence (Q9CAJ0 23-511 partner): T1 sequence (Q9CAJ0 23-511 partner)
Summary of the method: as §1

PYL6 = biological target: T3, PYL6 (Arabidopsis thaliana, UniProt Q8S8E3); assay: as above; type: biochemical; conditions: for remaining activity at 50 µM: 50 uM of the test compound
T3 construct: 6X-His; made in house; host or cells: E. coli BL21[DE3]pLysS
T3 sequence (Q8S8E3 1-215): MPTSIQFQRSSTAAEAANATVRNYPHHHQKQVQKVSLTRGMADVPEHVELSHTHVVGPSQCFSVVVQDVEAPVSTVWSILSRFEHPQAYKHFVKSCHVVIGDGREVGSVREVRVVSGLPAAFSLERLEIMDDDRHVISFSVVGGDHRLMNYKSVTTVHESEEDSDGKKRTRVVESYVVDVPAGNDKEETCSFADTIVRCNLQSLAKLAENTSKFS
T3 sequence (Q9CAJ0 23-511 partner): T1 sequence (Q9CAJ0 23-511 partner)
Summary of the method: as §1

[1] = system: Arabidopsis seed germination and hypocotyl growth; assay: Arabidopsis seed germination and hypocotyl growth; type: in vivo; conditions: for minimal effective concentration: Arabidopsis thaliana; for Hypocotyl Growth Inhibition / Germination Inhibition: Germination Inhibition II, tested at 10 and 50 uM; for Hypocotyl Growth Inhibition: lowest concentration that inhibited hypocotyl growth in wells where seeds germinated; for Germination Inhibition: lowest of the two concentrations that inhibited
Summary of the method: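 Wild-type seeds germinated on ½× Murashige and Skoog medium with compound at 10 and 50 uM, or in a later series at 1, 5, 10, 25 and 50 uM. Reported value is the lowest tested concentration that inhibited germination or hypocotyl growth in wells where seeds germinated.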

[2] = Table VII, read-out: PP2C Dose Curves PYL11 (IC50)
[3] = Table VII, read-out: PP2C Dose Curves PYL6 (IC50)
[4] = Table VIII, tested at 10 or 50 μM, ABA at 1 μM, lowest inhibiting concentration, − = none, read-out: Germination Inhibition
[5] = Table VIII, tested at 10 or 50 μM, lowest inhibiting concentration, − = none, read-out: Hypocotyl Growth Inhibition
[6] = Table VII, read-out: PP2C Dose Curves PYL10 (IC50)
[7] = Table XII-B, calculated from dose curves, read-out: PP2C Activity (IC50 in uM) PYL11
[8] = Table XII-B, calculated from dose curves, read-out: PP2C Activity (IC50 in uM) PYL10
[9] = Table XII-B, calculated from dose curves, read-out: PP2C Activity (IC50 in uM) PYL6

Row | Compound | IC50 (PYL11; [2]) | IC50 (PYL6; [3]) | minimal effective concentration [1, 4] | minimal effective concentration [1, 5] | Hypocotyl Growth Inhibition ([1]; − = none) | Germination Inhibition ([1]; − = none) | IC50 (PYL10; [6]) | also measured
1 | CC1=CC(=O)CC(C)(C)[C@@]1(O)/C=C/C(C)=C\C(=O)O [ABA, Abscisic acid, reference compound] |  |  |  |  |  |  |  | PP2C Activity PYL11 (PYL11; ABA (10 μM)): 5.7; PP2C Activity PYL10 (PYL10; ABA (10 μM)): 13.8; PP2C Activity PYL6 (PYL6; ABA (10 μM)): 10.9
2 | CC(C)(C(=O)NS(=O)(=O)Cc1ccc([N+](=O)[O-])cc1)c1ccccc1 [Compound 3] | 1.94 µM | 45.5 µM | 50 µM | 10 µM | 10 µM | 50 µM |  | 
3 | CC(C)(C(=O)NS(=O)(=O)Cc1ccc(C#N)cc1)c1ccc(Cl)cc1 [Compound 6] | 4.16 µM | > 50 µM | 50 µM | 10 µM | 10 µM | 50 µM | > 50 µM | 
4 | CC(C)(C(=O)NS(=O)(=O)Cc1ccc(C#N)cc1)c1ccc(Cl)c(Cl)c1 [Compound 7] | 13.9 µM | > 50 µM | 50 µM | 10 µM | 10 µM | 50 µM |  | 
5 | CC(C)(C(=O)NS(=O)(=O)Cc1ccc(C#N)cc1)c1ccc(F)cc1 [Compound 13] | 2.48 µM | 18.9 µM | 10 µM | 10 µM |  | 10 µM | > 50 µM | minimal effective concentration ([1]; Germination Effects III, tested at 1, 5, 10, 25 and 50 uM, lowest concentration inhibiting hypocotyl growth, — = none, read-out: Growth Inhibition): 5 µM; minimal effective concentration ([1]; Germination Effects III, tested at 1, 5, 10, 25 and 50 uM, lowest inhibiting concentration, — = none, read-out: Germination Inhibition): 10 µM
6 | CC(C)(C(=O)NS(=O)(=O)Cc1ccc(C#N)cc1)c1cccc(C#N)c1 [Compound 18] | 14.9 µM | 12.6 µM |  |  |  |  | 31.5 µM | 
7 | CCC(CC)(C(=O)NS(=O)(=O)Cc1ccc([N+](=O)[O-])cc1)c1ccccc1 [Compound 19] | 2.44 µM | 57.1 µM | 10 µM |  |  | 10 µM | 50.8 µM | 
8 | CC(C)(C(=O)NS(=O)(=O)Cc1ccc(C#N)cc1)c1ccccc1 [Compound 23] | 7.84 µM | > 50 µM | 50 µM | 10 µM | 10 µM | 50 µM | > 50 µM | 
9 | N#Cc1ccc(CS(=O)(=O)NC(=O)C2(c3ccc(F)cc3)CCCC2)cc1 [Compound 24] | 4.09 µM | > 50 µM | 10 µM |  |  | 10 µM | 14.8 µM | 
10 | N#Cc1ccc(CS(=O)(=O)NC(=O)C2(c3ccccc3F)CCCC2)cc1 [Compound 25] | 12.7 µM |  | 50 µM | 10 µM | 10 µM | 50 µM | > 50 µM | 
11 | N#Cc1ccc(CS(=O)(=O)NC(=O)C2(c3cccc(F)c3)CCCC2)cc1 [Compound 26] | 7.52 µM |  | 50 µM | 10 µM | 10 µM | 50 µM | 41.6 µM | 
12 | N#Cc1ccc(CS(=O)(=O)NC(=O)C2(c3ccccc3)CCC2)cc1 [Compound 29] | 1.77 µM | > 50 µM | 50 µM | 10 µM | 10 µM | 50 µM | > 50 µM | 
13 | N#Cc1ccc(CS(=O)(=O)NC(=O)C2(c3ccc(Br)cc3)CC2)cc1 [Compound 30] | 4.63 µM | > 50 µM |  | 50 µM | 50 µM |  |  | 
14 | N#Cc1ccc(CS(=O)(=O)NC(=O)C2(c3ccc(F)cc3)CCC2)cc1 [Compound 32] | 2.25 µM | > 50 µM | 50 µM | 10 µM | 10 µM | 50 µM | > 50 µM | 
15 | N#Cc1ccc(CS(=O)(=O)NC(=O)C2(c3ccc(F)cc3)CC2)cc1 [Compound 35] | 3.29 µM | 34.7 µM |  | 10 µM | 10 µM |  | > 50 µM | 
16 | COc1ccccc1C1(C(=O)NS(=O)(=O)Cc2ccc(C#N)cc2)CCC1 [Compound 42] | 14.7 µM | > 50 µM | 50 µM | 10 µM | 10 µM | 50 µM | 17.9 µM | 
17 | Cc1cccc(C2(C(=O)NS(=O)(=O)Cc3ccc(C#N)cc3)CCCC2)c1 [Compound 43] | > 50 µM |  | 50 µM | 10 µM | 10 µM | 50 µM | > 50 µM | 
18 | Cc1ccccc1C1(C(=O)NS(=O)(=O)Cc2ccc(C#N)cc2)CC1 [Compound 44] | 13.3 µM | 12.2 µM |  | 50 µM | 50 µM |  | 79.1 µM | 
19 | N#Cc1ccc(CS(=O)(=O)NC(=O)C2(c3cccc(C#N)c3)CC2)cc1 [Compound 50] | 2.52 µM | 2.43 µM |  |  |  |  | > 50 µM | 
20 | O=C(NS(=O)(=O)Cc1ccc([N+](=O)[O-])cc1)C1(c2ccccc2)CCCCC1 [Compound 63] |  |  |  |  |  |  |  | remaining activity at 50 µM (PYL11): 92.6%; IC50 (PYL11; [7]): > 50 µM; remaining activity at 50 µM (PYL10): 88.9%; IC50 (PYL10; [8]): > 50 µM; remaining activity at 50 µM (PYL6): 108%; IC50 (PYL6; [9]): > 50 µM
21 | O=C(NS(=O)(=O)Cc1ccc(F)cc1)C1(c2ccccc2)CCCCC1 [Compound 64] |  |  |  |  |  |  |  | remaining activity at 50 µM (PYL11): 97.5%; IC50 (PYL11; [7]): > 50 µM; remaining activity at 50 µM (PYL10): 89.8%; IC50 (PYL10; [8]): > 50 µM; remaining activity at 50 µM (PYL6): 109%; IC50 (PYL6; [9]): > 50 µM
22 | N#Cc1ccc(CS(=O)(=O)NC(=O)C(c2ccccc2)c2ccccc2)cc1 [Compound 71, N-[(4-Cyanophenyl)methanesulfonyl]-2,2-diphenylacetamide] |  |  |  |  |  |  |  | remaining activity at 50 µM (PYL11): 43.2%; IC50 (PYL11; [7]): 25 µM; remaining activity at 50 µM (PYL10): 86.5%; IC50 (PYL10; [8]): > 50 µM; remaining activity at 50 µM (PYL6): 96.9%; IC50 (PYL6; [9]): > 50 µM
23 | N#Cc1ccc(CS(=O)(=O)NC(=O)C(c2ccc(F)cc2)c2ccc(F)cc2)cc1 [Compound 72, N-[(4-Cyanophenyl)methanesulfonyl]-2,2-bis(4-fluorophenyl)acetamide] |  |  |  |  |  |  |  | remaining activity at 50 µM (PYL11): 37.4%; IC50 (PYL11; [7]): 25 µM; remaining activity at 50 µM (PYL10): 98%; IC50 (PYL10; [8]): > 50 µM; remaining activity at 50 µM (PYL6): 95.1%; IC50 (PYL6; [9]): > 50 µM
24 | N#Cc1ccc(CS(=O)(=O)NC(=O)C(C2CCCCC2)C2CCCCC2)cc1 [Compound 73, N-[(4-Cyanophenyl)methanesulfonyl]-2,2-cyclohexylacetamide] |  |  |  |  |  |  |  | remaining activity at 50 µM (PYL11): 26.9%; IC50 (PYL11; [7]): 22.4 µM; remaining activity at 50 µM (PYL10): 85.7%; IC50 (PYL10; [8]): > 50 µM; remaining activity at 50 µM (PYL6): 91%; IC50 (PYL6; [9]): > 50 µM
